The subject of one series is hepatitis B. The settings on record: preclinical studies; cited from earlier work.
The next series deals with hepatitis C. The settings on record: preclinical studies; cited from earlier work.
In series [1] the test system is mouse unilateral ureteral obstruction (UUO) model of kidney fibrosis. The experiment in a line: Mouse unilateral ureteral obstruction (UUO) model of kidney fibrosis, Sirius red. It counts as in vivo, C57BL/6 mice. Particulars: 50 mg/kg/day daily oral gavage for 13 days; vs vehicle; per-section and per-animal; one-way ANOVA with Tukey. The protocol: This example describes a study conducted in the mouse unilateral ureteral obstruction (UUO) model of kidney fibrosis. Seven-week-old female C57BL/6 mice were used in this study (n=8 mice per group). Sham group mice received no UUO. The remaining mice underwent complete surgical ligation of the left ureter. Vehicle and CRV431 at 50 mg/kg/day were administered by daily oral gavage for 13 days starting on the day of surgery. Mice were sacrificed on Day 14, and left kidneys were processed histologically and stained for fibrotic collagen with Sirius red. The percentage of each histological section with Sirius red staining was measured morphometrically in 5 sections from each kidney. Results are shown in FIG. 7A (showing Sirius red in individual tissue sections) and 7B (showing Sirius red in individual mice (5 tissue sections per mouse)).

Series [2] relates to Human renal mesangial cells. The series can be described thus: Cell viability analysis, renal mesangial cell culture. It is filed as cell-based. The settings on record: end of 4 days of treatment. How it is done:
Human renal mesangial cells (ScienCell, Cat. #4200 (SC)) were cultured in 96-well plates. Treatments were applied in triplicate wells (applied 100 ul treatments per well) for 2 days, then re-applied for an additional 2 days. Cells were near confluence at the start of treatments. […] Spent culture medium collected from Day 2-4 of treatment was assayed for procollagen and fibronectin by enzyme-linked immunosorbent assays (ELISA) (Procollagen ELISA antibody pair (ab216064) and fibronectin ELISA antibody pair (ab222262) from Abcam). Procollagen and fibronectin were not detected in medium not applied to cells. Procollagen and fibronectin levels in the medium are represented by means±SD (bars) from 3 replicate wells (open circles).

For series [3], the system named is Human Lung Fibroblasts from a Patient with Idiopathic Pulmonary Fibrosis (IPF). The series can be described thus: Procollagen and fibronectin ELISA of spent medium, IPF lung fibroblast culture. It counts as cell-based. Particulars: 6 days, both in the absence or presence of 0.4 ng/ml TGFβ. How it is done: (§1) Human Lung Fibroblasts from a Patient with Idiopathic Pulmonary Fibrosis (IPF) (Lonza Bioscience, Cat. #CC-7231) were cultured in 96-well plates. Treatments were applied in triplicate wells (applied 100 ul treatments per well) for 6 days. Cells were near confluence at the start of treatments. […] Spent culture medium collected at the end of the treatments was assayed for procollagen and fibronectin by enzyme-linked immunosorbent assays (ELISA) (Procollagen ELISA antibody pair (ab216064) and fibronectin ELISA antibody pair (ab222262) from Abcam). Procollagen and fibronectin were not detected in medium not applied to cells. Procollagen and fibronectin levels in the medium are represented by means±SD (bars) from 3 replicate wells (open circles).
On the technique in general: An ELISA detects its analyte on a solid surface through an enzyme-linked reagent.

Series [4] relates to Human LX-2 Hepatic Stellate Cells. The experiment in a line: Cell viability analysis, LX-2 culture. It counts as cell-based. Particulars: end of treatment (24 hours). How it is done: as §1, with “LX-2 Hepatic Stellate Cells (Millipore-Sigma,” for “Lung Fibroblasts from a Patient with Idiopathic Pulmonary Fibrosis (IPF) (Lonza Bioscience,”, “#SCC064)” for “#CC-7231)”, “24 hours.” for “6 days.”

The test system of series [5] is five different types of fibroblasts. The series can be described thus: Cell viability, summary over five types of fibroblasts. It counts as cell-based, Human. The settings on record: at clinically relevant concentrations.

Take `CC[C@@H]1NC(=O)[C@H]([C@H](O)[C@H](C)CCCCCCNC(C)=O)N(C)C(=O)[C@H](C(C)C)N(C)C(=O)[C@H](CC(C)C)N(C)C(=O)[C@H](CC(C)C)N(C)C(=O)[C@@H](C)NC(=O)[C@H](C)NC(=O)[C@H](CC(C)C)N(C)C(=O)[C@H](C(C)C)NC(=O)[C@H](CC(C)C)N(C)C(=O)[C@@H](C)N(C)C1=O` [CRV431]: the anti-viral activity result in the series on hepatitis B and with hepatitis C was “shows anti-viral activity” in each case. In series [1], the “Sirius red staining (fibrotic collagen) of left kidney” value is “statistically significant decrease”. Also, the results for the cell viability result in series [2], in series [4] and in series [5] were “none of the CRV431 treatments affected cell viability”, “none of the CRV431 treatments affected cell viability” and “without causing any reduction in cell viability”, respectively. The “abundance of fibronectin in the medium” value in series [3] is “dose-dependently decreased”. Also, the “abundance of procollagen in the medium” value in series [3] is “dose-dependently decreased”.

The values are drawn from patent US12409206B2, “Use of cyclosporine analogues for treating fibrosis” (Hepion Pharmaceuticals, Inc., priority 2020, dated 2025).
